For experiment [1], the target named is T1, 5-HT2B receptor in human tissues (Homo sapiens, UniProt P41595).
T1 construct: from tissue; host or cells: human colon longitudinal smooth muscle strips
As to the kind of experiment: Human 5-HT2B receptor tissue based functional assay (human colon longitudinal smooth muscle). It counts as cell-based. The following applies: antagonism of 5-HT effect on electrically stimulated human colon longitudinal muscle; pKB=log(CR-1)-log(antagonist concentration). Here is the method: An in vitro functional assay, using human colon smooth muscle, was carried out to determine the affinity of the test compounds at the 5-HT2B receptor in human tissues. Sections of human colon were cut open along their longitudinal axis. The sections were pinned out flat and the mucosa carefully removed using sharp dissecting scissors. Once the mucosa was removed, the section was turned over to reveal the three taenia coli (taenia mesencolica, taenia omentalis and taenia libera) and the muscle bands that lie between them. Longitudinal muscle strips (2 mm wide by 20 mm long) were then cut from the tissue between the taenia coli and suspended between stainless steel hooks in organ chambers containing oxygenated (95% O2/5% CO2) Krebs solution at 37° C. The composition of the Krebs solution was as follows: NaCl (118.2 mM), KCl (4.69 mM), MgSO4.7H2O (1.18 mM), KH2PO4 (1.19 mM), glucose (11.1 mM), NaHCO3 (25.0 mM), CaCl2.6H2O (2.5 mM). Tissues were placed under a load equivalent to 10 mN and left to equilibrate for a period of at least 60 minutes. Responses were recorded using isometric transducers coupled to an Apple Macintosh computer via a MacLab interface. After 60 minutes, the longitudinal muscle sections of the human colon were stimulated electrically (sub-maximal voltage and frequency with 60s between successive stimulations) using parallel platinum wire electrodes and a Multistim D330 pulse stimulator. Upon electrical stimulation, the strips of human colon longitudinal smooth muscle responded with a rapid contraction. Once the response to electrical stimulation had stabilised (stimulated responses differed by no more than 10%), the strips were exposed to increasing concentrations of 5-HT (1×10^−9 to 1×10^−5M), in the absence or presence of test compounds (1×10^−7 to 1×10^−5M, incubated for 30 minutes). To determine the affinity of the compounds, the concentration of 5-HT required to produce half-maximal effects (EC50) was calculated in the absence and presence of test compound. The antagonist affinity was calculated by dividing the EC50 for 5-HT in the presence of antagonist by the EC50 for 5-HT in the absence of antagonist to yield a concentration ratio (CR). The results are shown in table 2 below as a pKB value, which is calculated as follows: pKB=log(CR−1)−log(antagonist concentration). This approach follows that set out in Kenakin, T. P. Pharmacologic analysis of drug-receptor interaction. Raven Press, New York, 2nd Edition.

Experiment [2] deals with T2, human cloned 5-HT2B receptors (Homo sapiens, UniProt P41595).
T2 construct: expressed in transfected cells; host or cells: CHO-K1 cells
T2 sequence (P41595 whole entry): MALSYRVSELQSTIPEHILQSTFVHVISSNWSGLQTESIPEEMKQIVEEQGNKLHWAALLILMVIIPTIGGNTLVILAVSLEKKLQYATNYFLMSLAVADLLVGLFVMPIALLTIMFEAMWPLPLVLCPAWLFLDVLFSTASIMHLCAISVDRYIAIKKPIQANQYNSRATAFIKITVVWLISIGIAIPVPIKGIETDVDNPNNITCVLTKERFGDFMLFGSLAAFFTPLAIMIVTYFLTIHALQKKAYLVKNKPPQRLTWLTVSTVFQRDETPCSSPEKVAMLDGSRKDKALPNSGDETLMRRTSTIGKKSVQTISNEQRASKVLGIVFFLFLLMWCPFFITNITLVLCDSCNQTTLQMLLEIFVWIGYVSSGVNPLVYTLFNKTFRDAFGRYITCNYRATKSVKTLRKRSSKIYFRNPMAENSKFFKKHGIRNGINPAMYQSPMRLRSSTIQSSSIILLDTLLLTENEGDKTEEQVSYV
Kind of experiment: Human cloned 5-HT2B receptor binding assay ([3H]LSD, CHO-K1 membranes). The note with it: displacement of [3H]LSD (1 nM), read-out: 5-HT2B pKi (converted). Here is the method: The binding affinity of the compounds for human cloned 5-HT2B receptors was determined using the following assay.
CHO-K1 cells expressing cloned 5-HT2B receptor were maintained in Ultra-CHO medium containing 400 μg/ml of G418, 100 U/ml penicillin, 100 μg/ml streptomycin, 2.5 μg/ml fungizone and 1% foetal bovine serum, in 95/5% O2/CO2 at 37° C. The cells were harvested using 0.25% trypsin and were centrifuged at 800 rpm for 8 minutes. The cells were homogenised in 50 mM HEPES buffer containing 1 mM disodium EDTA and 1 mM PMSF at pH 7.4, using a Dounce homogeniser (20 strokes). The homogenate was centrifuged at 2280 rpm (1000 g) and 4° C. for 10 minutes, after which the supernatant was removed by decanting. The pellet was re-homogenised as above, and the resulting supernatant removed and combined with that already obtained. The supernatant solution was then centrifuged at 18300 rpm (40000 g) for 10 minutes at 4° C. using a Sorvall centrifuge. The supernatant was removed, and the pellet was re-suspended in 50 mM buffer at pH 7.4 using a Ultra-turrax T25 Polytron, before centrifugation again at 40000 g as above. This wash procedure was repeated, after which the membrane preparation was stored at a concentration of 1 mg/ml at −80° C. until use.
The membranes were thawed rapidly and diluted in assay buffer containing Tris-HCl (50 mM, pH 7.4), ascorbic acid (0.1%) and calcium chloride (4 mM). The membranes were homogenised to resuspend them, prior to adding 10 or 15 μg of membranes to assay wells containing [^3H]LSD (1 nM), assay buffer (50 mM Tris, 4 mM calcium chloride and 0.1% ascorbic acid) containing pargyline (10 μM), and the test compounds (1×10^−10 to 1×10^−4M). Non specific binding was determined in the presence of 100 μM 5-HT. After 30 minutes incubation at 37° C., the assay mixture was filtered through a combination of GF-C and GF-B filters, pre-soaked in 1% polyethyleneimine, using a Brandel cell harvester, and were washed three times using 50 mM Tris-HCl. Radioactivity retained on the filters was determined by liquid scintillation counting. For each test compound, the concentration that inhibited binding of [3H]LSD by 50% was determined using curve fitting software (Prism). Kd values (concentration of LSD required to occupy 50% of the receptor binding sites at equilibrium) determined from saturation binding studies were then used to calculate inhibition dissociation constants (Ki) using the following equation: […]
This approach follows that set out in Kenakin, T.P. Pharmacologic analysis of drug-receptor interaction. Raven Press, New York, 2nd Edition.

The values that follow come from patent publication US7429607B2, “5-HT2B receptor antagonists” (Asterand UK Limited, priority 2002, dated 2008).

T1 sequence (P41595 whole entry): as above

As a reminder, the Kb is the affinity of an antagonist, worked out from how it opposes an agonist. A lower Kb goes with a more potent antagonist. Take `COc1ccc2ccccc2c1-c1coc(N)n1` [Compound 17, 4-(2-methoxy-naphthalen-1-yl)-oxazol-2-ylamine]: the Kb in experiment [1] was < 10 nM. Also, the Ki in experiment [2] was < 10 nM.

As for `CC(C)c1nc(N)oc1-c1cccc2ccccc12` [Compound 7, 2-amino-4-isopropyl-5-(naphth-1-yl)oxazole], the Kb in experiment [1] is < 10 nM. For the same compound, in experiment [2], the Ki is < 10 nM.

With `Nc1nc(-c2cccc3ccccc23)co1` [Compound 1, 2-amino-4-(naphth-1-yl)oxazole], in experiment [1], the Kb is < 100 nM. Also, in experiment [2], the Ki was < 100 nM.

For the compound `CC(C)c1nc(N)oc1-c1ccc(F)c2ccccc12` [Compound 31, 2-amino-5-(4′-fluoronaphth-1-yl)-4-isopropyloxazole], in experiment [1], the Kb was < 100 nM. The Ki in experiment [2] was < 10 nM.

For `Cc1ccc2ccccc2c1-c1coc(N)n1` [Compound 6, 2-amino-4-(2′-methylnaphth-1-yl)oxazole], the Kb in experiment [1] was < 100 nM. The Ki in experiment [2] was < 10 nM.
